Data reported in patent US6221863A, “3,4-dihydro-2H-benzo[1,4]oxazine derivatives” (American Home Products Corp., priority 1999, dated 2001).
Like-named read-outs stand apart in the source and are kept apart here.

Tests used:
human 5-HT1A receptor [1] = biological target: T1, human 5-HT1A receptor (Homo sapiens, UniProt P08908); test: 5-HT1A receptor binding, [3H]8-OH-DPAT displacement in membranes of CHO cells expressing the human receptor; settings: 5-HT1A.CHO membranes; for Ki: [3H]8-OH-DPAT 1.5 nM, 30 min, room temperature; for inhibition at 0.1 µM: at .1 μM, [3H]8-OH-DPAT, read-out: 5-HT1A (% Inh. @ .1 μM)
T1 construct: expressed in transfected cells
T1 sequence (P08908 1-422): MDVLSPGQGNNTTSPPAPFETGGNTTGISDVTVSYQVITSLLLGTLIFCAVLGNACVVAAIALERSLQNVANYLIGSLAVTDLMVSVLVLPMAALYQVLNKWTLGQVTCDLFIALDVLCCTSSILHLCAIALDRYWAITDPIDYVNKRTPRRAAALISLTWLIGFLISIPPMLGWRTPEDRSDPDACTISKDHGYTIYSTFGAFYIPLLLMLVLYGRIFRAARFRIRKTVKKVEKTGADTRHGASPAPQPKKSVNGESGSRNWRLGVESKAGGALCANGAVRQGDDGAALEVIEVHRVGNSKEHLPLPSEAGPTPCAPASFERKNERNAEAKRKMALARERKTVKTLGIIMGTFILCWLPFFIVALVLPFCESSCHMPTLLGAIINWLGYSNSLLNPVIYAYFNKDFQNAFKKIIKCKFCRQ
Protocol: (§1) The PCR cloning of the human ^5 -HT1A receptor subtype from a human genomic library has been described previously by Chanda et al., Mol. Pharmacol., 43:516 (1993). A stable Chinese hamster ovary cell line expressing the human S-HT1A receptor subtype (5-HT1A.CHO cells) was employed throughout this study. Cells were maintained in DMEM supplemented with 10% fetal calf serum, non-essential amino acids and penicillin/ streptomycin.
Cells were grown to 95-100% confluency as a monolayer before membranes were harvested for binding studies. Cells were gently scraped from the culture plates, transferred to centrifuge tubes, and washed twice by centrifugation (2000 rpm for 10 min., 4° C.) in buffer (50 mM Tris; pH 7.5). The resulting pellets were aliquoted and placed at -80.C. On the day of assay, the cells were thawed on ice, and resuspended in buffer. Studies were conducted using [^3 H]8-OH-DPAT as the radioligand. The binding assay was performed in 96 well mnicrotiter plates in a final total volume of 250 μL of buffer. Comparison experiments were performed by using 7 concentrations of unlabelled drug and a final ligand concentration of 1.5 nM . Non-specific binding was determined in the presence of 10 μM 5HT. Saturation analysis was conducted by using [^3 H]8-OH-DPAT at concentrations ranging from 0.3-30 nM. Following a 30 minute incubation at room temperature, the reaction was terminated by the addition of ice cold buffer and rapid filtration using a M-96 Brandel Cell Harvester Gaithersburg, Md.) through a GF/B filter presoaked for 30 minutes in 0.5% polyethyleneimine.

human 5-HT1A receptor [2] = biological target: T1, human 5-HT1A receptor; test: [35S]-GTPγS binding in 5-HT1A cloned receptor membrane fragments; type: biochemical; settings: [35S]GTPγS 1 nM, 30 min, 30° C.; excess 8-OH-DPAT defines maximum agonist response
Excerpt: as §1
The [^35 S]-GTPγS binding assay was similar to that used by Lazareno and Birdsall, Br. J. Pharmacol. 109:1120 (1993). Briefly, 5-HT1A cloned receptor membrane fragments (as used for 5-H1A receptor binding assays) were stored at -70° C. until needed. When needed, membranes were rapidly thawed, centrifuged at 40,000×g for 10 minutes and resuspended at 4° C. for 10 minutes in assay buffer (25 mM HEPES, 3 mM MgCl2, 100 mnM NaCl, 1 mM EDTA, 10 uM GDP, […] DTT, pH 8.0). These membranes were then incubated for 30 min at 30° C. with [^35 S]GTPgS (1 nM) in the presence of vehicle, test compound (one to eight concentrations), or excess 8-OH-DPAT to define maximum agonist response. All reactions are terminated by the addition of ice cold Tris buffer followed by rapid filtration using a Tom Tech® filtration device to separate bound from free [^35 S]GTPgS. Agonists produce an increase in the amount of [^35 S]GTPgS bound whereas antagonists produce no increase in binding. Bound radioactivity was counted and analyzed as above.

serotonin transporter = biological target: T2, serotonin transporter (Rattus norvegicus, UniProt P31652); test: serotonin transporter (ST) binding, 3H-paroxetine displacement in rat frontal cortical membranes; parameters: species or system rat (male Sprague-Dawley)
T2 construct: frontal cortical membranes prepared from male Sprague-Dawley rats; from tissue; host or cells: frontal cortical membranes of male Sprague-Dawley rats
T2 sequence (P31652 whole entry): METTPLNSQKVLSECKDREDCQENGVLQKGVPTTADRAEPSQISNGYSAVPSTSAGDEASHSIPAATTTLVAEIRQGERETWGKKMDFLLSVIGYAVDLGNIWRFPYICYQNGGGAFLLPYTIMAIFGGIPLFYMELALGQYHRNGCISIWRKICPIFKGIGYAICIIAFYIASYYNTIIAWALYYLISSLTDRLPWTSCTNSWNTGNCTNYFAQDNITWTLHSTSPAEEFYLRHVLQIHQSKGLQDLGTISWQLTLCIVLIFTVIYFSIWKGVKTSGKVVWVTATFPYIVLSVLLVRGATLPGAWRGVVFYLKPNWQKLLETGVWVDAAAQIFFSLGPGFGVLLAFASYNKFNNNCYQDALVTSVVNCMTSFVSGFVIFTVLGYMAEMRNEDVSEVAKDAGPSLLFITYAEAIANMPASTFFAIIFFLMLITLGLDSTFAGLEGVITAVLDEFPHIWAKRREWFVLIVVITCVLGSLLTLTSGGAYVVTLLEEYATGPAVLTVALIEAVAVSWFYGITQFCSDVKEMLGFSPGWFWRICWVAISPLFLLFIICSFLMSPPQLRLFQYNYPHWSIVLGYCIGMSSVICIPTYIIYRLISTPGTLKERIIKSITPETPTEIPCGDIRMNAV
Protocol: A protocol similar to that used by Cheetham et al., Neuropharmacol. , 32:737 (1993) was used to determine the affinity of compounds for the serotonin transporter. Briefly, frontal cortical membranes prepared from male Sprague-Dawley rats were incubated with ^3 H-paroxetine (0.1 nM) for 60 min at 25° C. All tubes also contained either vehicle, test compound (one to eight concentrations), or a saturating concentration of fluoxetine (10 μM) to define […]. All reactions were terminated by the addition of ice cold Tris buffer followed by rapid filtration using a Tom Tech filtration device to separate bound from free ^3 H-paroxetine. Bound radioactivity was quantitated using a Wallac 1205 Beta Plate® counter. Nonlinear regression analysis was used to determine IC50 values which were converted to Ki values using the method of Cheng and Prusoff, Biochem. Pharmacol., 22:3099 (1973); Ki=IC50/((Radioligand conc.)/(1+KD)).

[3] = 3H-paroxetine 0.1 nM, 60 min, 25° C., rat frontal cortical membranes, IC50 converted to Ki (Cheng-Prusoff), read-out: ST (Ki)

Structure (SMILES) | Ki (human 5-HT1A receptor [1]) [nM] | Emax (human 5-HT1A receptor [2]) [%] | Ki (serotonin transporter) [nM] | Ki (serotonin transporter; [3]) [nM] | inhibition at 0.1 µM (human 5-HT1A receptor [1]) [%]
COc1cccc2c1OC(CN1CC=C(c3c[nH]c4ccc(F)cc34)CC1)CN2 (centres unmarked) [Example 1, 2-[4-(5-Fluoro-1H-indol-3-yl)-3,6-dihydro-2H-pyridin-1-ylmethyl]-8-methoxy-3,4-dihydro-2H-benzo[1,4]oxazine] | 155 | 10 | 3.7 |  | 
COc1cccc2c1OC(CN1CC=C(c3c[nH]c4ccc(F)cc34)CC1)CN2C (centres unmarked) [Example 2, 2-[4-(5-Fluoro-1H-indol-3-yl)-3,6-dihydro-2H-pyridin-1-ylmethyl]-8-methoxy-4-methyl-3,4-dihydro-2H-benzo[1,4]oxazine] | 140 | 97 | 8.5 |  | 
CCN1CC(CN2CC=C(c3c[nH]c4ccc(F)cc34)CC2)Oc2c(OC)cccc21 (centres unmarked) [Example 3, 2-[4-(5-Fluoro-1H-indol-3-yl)-3,6-dibydro-2H-pyridin-1-ylmetbyl]-8-methoxy-4-ethyl-3,4-dihydro-2H-benzo[1,4]oxazine] | 137 | 62 | 12 |  | 
CCCN1CC(CN2CC=C(c3c[nH]c4ccc(F)cc34)CC2)Oc2c(OC)cccc21 (centres unmarked) [Example 4, 2-[4-(5-Fluoro-1H-indol-3-yl)-3,6-dihydro-2H-pyridin-1-ylmethyl]-8-methoxy-4-propyl-3,4-dihydro-2H-benzo[1,4]oxazine] | 363 | 100 | 20 |  | 
C1=C(c2c[nH]c3ccccc23)CCN(CC2CNc3ccccc3O2)C1 (centres unmarked) [Example 5, 2-[4-(1H-Indol-3-yl)-3,6-dihydro-2H-pyridin-1-ylmethyl]-3,4-dihydro-2H-benzo[1,4]oxazine] | 805 | 57 |  | 0.74 | 
C1=C(c2c[nH]c3ncccc23)CCN(CC2CN(c3ccccc3)c3ccccc3O2)C1 (centres unmarked) [Example 6, 4-Phenyl-2-[4-(1H-pyrrolo[2,3,b]pyridin-3yl)-3,6-dihydro-2H-pyridin-1-ylmethyl]-3,4-dihydro-2H-benzo[1,4]oxazine] |  | 0 | 106 |  | 20
COc1cccc2c1OC(CN1CC=C(c3c[nH]c4ccc(F)cc34)CC1)CN2c1ccc(C(F)(F)F)cc1 (centres unmarked) [Example 7, 2-[4-(5-Fluoro-1H-Indol-3-yl)-3,6-dihydro-2H-pyridin-1-ylmethyl]-8-methoxy-4-(4-trifluoromethyl-phenyl)-3,4-dihydro-2H-benzo[1,4]oxazine] |  |  |  | 505 | 0
